In article PMC5766630, “Non-estrogenic Xanthohumol Derivatives Mitigate Insulin Resistance and Cognitive Impairment in High-Fat Diet-induced Obese Mice” (Scientific Reports, 2018):

How the values were obtained:
[1] = tested on: liver AMPK (pAMPKα/total AMPKα); test: AMPK activation in liver by Western blot; format: in vivo, mouse; details: HFD mice, 30 mg/kg/day, 13 weeks, vs control
Description: Approximately 150 mg of frozen liver and muscle tissues were homogenized in tubes containing RIPA buffer with protease and phosphatase inhibitors plus ceramic beads (1.4 mm Ceramic, Bulk Beads, Fisher Scientific, Pittsburgh, PA, USA) using a Precellys 24 (PEQLAB Biotechnology GmbH, Germany). Liver tissue was homogenized for 1 × 30 sec at 6,500 rpm whereas muscle was homogenized for 3 × 30 sec at 6,500 rpm with 20 sec intervals. The homogenates were centrifuged at 15,700 × g for 10 minutes and aliquots (50 µg of protein) of the supernatant (lysate) were separated by SDS-PAGE using 4–15% MP TGX Gels (Bio-Rad # 4561083) and blotted onto nitrocellulose membranes. Membranes were blocked with 5% nonfat milk for 2 h and incubated with antibodies against pAMPK (Phospho-AMPKα (Thr172) Antibody, cat. no. #2531 Cell Signaling Technology, Danvers, MA, USA), AMPK (AMPKα Antibody, cat. no. #2532 Cell Signaling Technology, Danvers, MA, USA), or β-actin (Santa Cruz Biotechnology) for 1 h or overnight. After a second reaction with secondary antibodies (horseradish peroxidase-conjugated IgG goat antirabbit or goat antimouse antibodies), the protein bands on the nitrocellulose membranes were visualized by enhanced chemiluminescence substrate on a Biorad ChemiDocTM MP Imaging System (BioRad Laboratories Inc, Hercules, CA, USA). Band intensities were quantified by densitometry using Image J software.

[2] = tested on: progesterone receptor (PGR) expression in MCF-7 cells; test: Progesterone receptor (PGR) gene expression in MCF-7 cells, real-time PCR; format: cell-based, human; details: 20 h; estradiol 1 and 10 nM; 8-PN, XN, DXN, TXN 0.2, 1 and 5 μM; vs 0.1% ethanol
Description: MCF-7 cells (American Type Culture Collection, Manassas, VA, USA) were cultured in DMEM (Corning Life Sciences, Tewksbury, MA, USA) supplemented with 10% fetal bovine serum (Corning Life Sciences) and 100 μg/ml penicillin/streptomycin (Invitrogen, Carlsbad, CA, USA). For estrogen-free experiments, cells were seeded in phenol-free DMEM (Gibco/Life Technologies, Grand Island, NY, USA) plus 10% charcoal-dextran-treated FBS (Corning Life Sciences) at 5 × 10^5 cells/well of a 6-well plate. […] Total RNA was isolated using TRIzol (Invitrogen) and converted into cDNA using iScript (Bio-Rad, Hercules, CA, USA). Real-time PCR was performed in triplicate on a CFX-96 (Bio-Rad) using primer-probe assays (IDT Technologies, Coralville, IA, USA) and SsoAdvanced Universal Probes Supermix (Bio-Rad) to quantify progesterone receptor (PGR) and GAPDH levels. The ratio of PGR to GAPDH was calculated as 2^−ΔCt PGR/2^−ΔCt GAPDH. Data were analyzed using a one-way ANOVA (p < 0.05 was considered statistically significant) and a post-hoc Tukey’s multiple comparison test. Induction of the progesterone receptor in MCF-7 cells is one of the indices of estrogenicity of flavonoids such as 8-PN[94].

[3] = LC-MS/MS analysis of XN, DXN and TXN in mouse liver, plasma and muscle; format: in vivo; details: for Plasma concentration, fold greater than combined XN + IX / Muscle concentration, fold greater than combined XN + IX / Liver concentration, fold greater than combined XN + IX: HFD mice, 30 mg/kg/day in diet, 13 weeks; for Muscle concentration, fold greater than combined XN + IX: hind leg skeletal muscle; for Liver concentration, fold greater than combined XN + IX: steady state
Description: Nine-week old male C57BL/6J mice, obtained from The Jackson Laboratory (Bar Harbor, ME, USA), were housed individually in plastic cages under a 12–12-hr light-dark cycle. They were assigned randomly to four groups consisting of 12 mice each. One group (control) was fed a HFD (Dyets Inc., Bethlehem, PA, USA) containing 60%, 20% and 20% total calories from fat, carbohydrate and protein, respectively, and the other three groups were fed the HFD containing XN, DXN, or TXN. The test compounds were dissolved in an isotropic mixture of oleic acid:propylene glycol:Tween 80, 0.9:1:1 by weight (OPT) before incorporation into the HFD. The control diet contained an identical amount of OPT. All diets were prepared in pellet form by Dyets, Inc. (Bethlehem, PA, USA). The mouse diets were formulated to deliver a dose of 30 mg test compound per kg body weight per day. Food intake was measured three times per week and body weights were recorded weekly. At the end of 13 weeks of feeding, the mice were euthanized and blood, liver and skeletal muscle were collected for analyses. All animal protocols were approved by Institutional Animal Care and Use Committee (IACUC) at Oregon State University. Animal experiments were carried out in accordance with the relevant guidelines and regulations.
Liver and plasma from each mouse were subjected to enzymatic hydrolysis, extracted and analyzed using the paper strip extraction technique as previously described[36],[96]. For skeletal muscle, approximately 200 mg of frozen muscle tissue were placed into tubes containing ceramic beads (1.4 mm Ceramic, Bulk Beads, Fisher Scientific, Pittsburgh, PA, USA) and methanol:water (90:10; 500 μL/200 mg tissue) and homogenized using a Precellys 24 (PEQLAB Biotechnology GmbH, Germany). The tissue was homogenized for 3 × 30 sec at 6,500 rpm with 20 sec intervals and then centrifuged at 15,700 × g for 10 minutes and 100 μl of supernatant was used for the paper strip extraction as previously described[36],[96]. Concentrations of XN, DXN and TXN were calculated using an internal standard, 2′,4-dihydroxychalcone (DHC), with matrix-based calibration curves and Analyst Software (Analyst 1.5, AB Sciex, Foster City, CA, USA). Samples were analyzed by LC-MS/MS using an AB Sciex 4000 Q-trap triple quadrupole mass spectrometer using a source temperature of 600 °C and a needle voltage of −4500 V. The source, curtain and collision gases were all nitrogen. Analytes were separated by high performance liquid chromatography (HPLC) using a 2.1 × 50 mm Agilent Zorbax 300 SB – C8 3.5 µm column (Agilent, Santa Clara, CA, USA). The elution gradient was 25 to 60% solvent B (0.1% formic acid in acetonitrile) in solvent A (aqueous 0.1% formic acid) in 2.6 minutes using a flow rate of 0.5 ml/min after an initial 1.4 min at 25% solvent B. The gradient was then increased to 100% solvent B in 0.1 min and held at 100% B for 1.4 min, then dropped to 25% B in 0.25 minutes, followed by re-equilibration with 25% B for 9.25 minutes. SRM transitions for quantification were: m/z 353 → 119 for XN, m/z 353 → 233 for IX, m/z 339 → 219 for 8-PN, m/z 355 → 249 for DXN, m/z 357 → 251 for TXN, and m/z 239 → 119 for DHC.

human LDL = tested on: human LDL; parameters: method as in PMID 14565769; details: cited from earlier work
HFD-fed C57BL/6 J mice = tested on: HFD-fed C57BL/6 J mice; parameters: method as in PMID 26976708; details: oral, 60 mg/kg/day; cited from earlier work

In the case of COc1cc(O)c(CC=C(C)C)c(O)c1C(=O)CCc1ccc(O)cc1 [DXN, α,β-Dihydroxanthohumol], the “Increase of liver AMPK activation (phosphorylated AMPKα/total AMPKα)” value (shortened to “Increase of liver AMPK activation”) [1] is reported as “did not cause a significant activation”, the “induction of PGR expression” value [2] is reported as “do not induce” and the “Plasma concentration, fold greater than combined XN + IX” value [3] is reported as 7 fold. The “Muscle concentration, fold greater than combined XN + IX” value [3] was 7 fold and the “Liver concentration, fold greater than combined XN + IX” value [3] was 6 fold.

In the case of COc1cc(O)c(CCC(C)C)c(O)c1C(=O)CCc1ccc(O)cc1 [TXN, tetrahydroxanthohumol], the “Inhibition of SIN-1-induced lipid peroxidation of human LDL” value (human LDL) is given as “little or negligible protection”, the “Increase of liver AMPK activation” value [1] is given as “did not cause a significant activation” and the “induction of PGR expression” value [2] is given as “do not induce”. For the same compound, the “Plasma concentration, fold greater than combined XN + IX” value [3] was 10 fold, the “Muscle concentration, fold greater than combined XN + IX” value [3] was 5 fold and the concentration at 13 weeks ([3]; male, C57BL/6J, mouse, liver, oral dosing at 30 mg/kg/day, read-out: Liver concentration (highest measured)) was 5 µM. For the same compound, the “Liver tissue concentration (highest measured)” value ([3]; mouse dose of 30 mg/kg/day) was 5 nmol/g and the “Liver concentration, fold greater than combined XN + IX” value [3] was 12 fold.

In the case of COc1cc(O)c(CC=C(C)C)c(O)c1C(=O)/C=C/c1ccc(O)cc1 [XN, 3′-[3,3-dimethylallyl]-2′,4′,4-trihydroxy-6′-methoxychalcone], the “Inhibition of SIN-1-induced lipid peroxidation of human LDL” value (human LDL) is given as “effectively inhibits”, the “HOMA-IR, change vs vehicle/HFD controls” value (HFD-fed C57BL/6 J mice) is given as −52% and the “Interleukin-6 (IL-6), change vs vehicle/HFD controls” value (HFD-fed C57BL/6 J mice) is given as −78%. The “Leptin, change vs vehicle/HFD controls” value (HFD-fed C57BL/6 J mice) was −41%, the “Plasma LDL-c, change vs vehicle/HFD controls” value (HFD-fed C57BL/6 J mice) was −80% and the “Plasma PCSK9, change vs vehicle/HFD controls” value (HFD-fed C57BL/6 J mice) was −44%. For the same compound, the “Increase of liver AMPK activation” value [1] was 24% and the “induction of PGR expression” value [2] was “do not induce”.
